Assay results taken from patent US10335453B2, “Compositions and methods for improving sexual function” (Nymox Corporation, priority 2017, dated 2019).
Peptide text beside a SMILES is read from it.

Experiments:
BPH patients [1] = experiment: Example 5: SFQ long-term mean change, treatment naive BPH patients, one injection, 12.6-51.1 months; type: in vivo, human; conditions: at 12.6-51.1 months
Experimental: One hundred and fifty (150) BPH patients with no prior history of any conventional approved medical or surgical treatment (“treatment naive”) for BPH were given an intraprostatic injection of either (a) (2.5 mg) NX-1207 (2.5 mg) in phosphate buffered saline pH 7.2 (“PBS”) (n=83) or (b) PBS alone (n=67) under double-blind conditions by a urologist in an office setting under ultrasound guidance. These patients were followed for 12.6-51.1 months after treatment and their progress was monitored by urological investigations. Prior to their treatment each patient's sexual function was assessed by history and each patient completed a Sexual Function Questionnaire (“SFQ”) which scored from 0 to 12 points the degree to which the patient considered they had any problems with 1. lack of sex drive, 2. ability to get and keep an erection, and 3. problems with ejaculation; (Problem Assessment Scale of the Brief Male Sexual Function Inventory). A higher score indicates improvement with a better sexual functional self-assessment and less of a sexual problem; a lower score indicates worsening with more of a sexual problem. Many approved BPH medications and treatments are associated with lower scores. The SFQ was subsequently re-administered 12.6-51.1 months post-treatment.

BPH patients [2] = experiment: Example 7: proportion of BPH patients with SFQ<=3, NX-1207 in treatment naive vs previously treated patients; type: in vivo, human; conditions: at 12.6-51.1 months
Experimental: Three hundred and twenty four (324) BPH patients were given an intraprostatic injection of either (a) NX-1207 (2.5 mg) in phosphate buffered saline pH 7.2 (“PBS”) (n=189) or (b) PBS alone (n=135), under double-blind conditions by a urologist in an office setting under ultrasound guidance. These patients were followed for 12.6-51.1 months after treatment and their progress was monitored by urological investigations. Prior to their treatment each patient's sexual function was assessed by history and each patient completed a Sexual Function Questionnaire (“SFQ”) which scored from 0 to 12 points the degree to which the patient considered they had any problems with 1. lack of sex drive, 2. ability to get and keep an erection, and 3. problems with ejaculation; (Problem Assessment Scale of the Brief Male Sexual Function Inventory). A higher score indicates improvement with a better sexual functional self-assessment and less of a sexual problem; a lower score indicates worsening with more of a sexual problem. Many approved BPH medications and treatments are associated with lower scores. Eighty nine (89) BPH patients in this group had baseline pre-treatment SFQ scores<=3 points indicating significant sexual problems. The SFQ was subsequently re-administered 12.6-51.1 months post-treatment. […]

BPH patients [3] = experiment: Example 4: proportion with no worsening or improvement in SFQ, two NX-1207 injections vs PBS followed by one NX-1207 injection; set-up: species or system human; conditions: in vivo
Experimental: One hundred and fifty (150) BPH patients with no prior history of any conventional approved medical or surgical treatment (“treatment naïve”) for BPH were given an intraprostatic injection of either (a) NX-1207 (2.5 mg) in phosphate buffered saline pH 7.2 (“PBS”) (n=83) or (b) PBS alone (n=67), under double-blind conditions by a urologist in an office setting under ultrasound guidance. All patients were followed for a period of 12.6-51.1 months and then treated by a second open-label injection of NX-1207 (2.5 mg) in PBS. Prior to their treatment each patient's sexual function was assessed by history and each patient completed a Sexual Function Questionnaire (“SFQ”) which scored from 0 to 12 points the degree to which the patient considered they had any problems with 1. lack of sex drive, 2. ability to get and keep an erection, and 3. problems with ejaculation, (Problem Assessment Scale of the Brief Male Sexual Function Inventory). A higher score indicates improvement with a better sexual functional self-assessment and less of a sexual problem; a lower score indicates worsening with more of a sexual problem. Many approved BPH medications and treatments are associated with lower scores. The SFQ was subsequently re-administered 6 months post second treatment. […]

[4] = tested on: BPH patients with significant sexual problems; experiment: Example 2: SFQ, treatment naïve BPH patients with significant sexual problems (baseline SFQ<=3), one intraprostatic injection, 12 months; type: in vivo, human; conditions: at 12 months
Experimental: One hundred twenty three (123) BPH patients with significant sexual problems and with no prior history of any conventional approved medical or surgical treatment (“treatment naïve”) for BPH were given an intraprostatic injection of either (a) NX-1207 (2.5 mg) in phosphate buffered saline pH 7.2 (“PBS”) (n=75) or (b) PBS alone (n=48), under double-blind conditions by a urologist in an office setting under ultrasound guidance. These patients were followed for 12 months after treatment and their progress was monitored by urological investigations. Prior to their treatment each patient's sexual function was assessed by history and each patient completed a Sexual Function Questionnaire (“SFQ”) which scored from 0 to 12 points the degree to which the patient considered they had any problems with 1. lack of sex drive, 2. ability to get and keep an erection, and 3. problems with ejaculation; (Problem Assessment Scale of the Brief Male Sexual Function Inventory). A higher score indicates improvement with a better sexual functional self-assessment and less of a sexual problem; a lower score indicates worsening with more of a sexual problem. Many approved BPH medications and treatments, and conditions are associated with lower scores. All 123 BPH patients in this group had baseline pre-treatment SFQ scores<=3 points indicating significant sexual problems. […]

BPH patients [5] = experiment: Example 3: SFQ mean change, treatment naïve BPH patients, two NX-1207 injections vs PBS followed by one NX-1207 injection; conditions: human, in vivo
Experimental: One hundred and fifty six (156) BPH patients with no prior history of any conventional approved medical or surgical treatment (“treatment naïve”) for BPH were given an intraprostatic injection of either (a) NX-1207 (2.5 mg) in phosphate buffered saline pH 7.2 (“PBS”) (n=88) or (b) PBS alone (n=68), under double-blind conditions by a urologist in an office setting under ultrasound guidance. All patients were followed for a period of 12.6-51.1 months and then treated by a second open-label injection of NX-1207 (2.5 mg) in PBS. Prior to their treatment each patient's sexual function was assessed by history and each patient completed a Sexual Function Questionnaire (“SFQ”) which scored from 0 to 12 points the degree to which the patient considered they had any problems with 1. lack of sex drive, 2. ability to get and keep an erection, and 3. problems with ejaculation, (Problem Assessment Scale of the Brief Male Sexual Function Inventory). A higher score indicates improvement with a better sexual functional self-assessment and less of a sexual problem; a lower score indicates worsening with more of a sexual problem. Many approved BPH medications and treatments are associated with lower scores. The SFQ was subsequently re-administered 6 months post second treatment. […]

BPH patients [6] = experiment: Example 6: proportion of treatment-naive BPH patients with SFQ<=3, NX-1207 vs PBS, 12.6-51.1 months; type: in vivo, human; conditions: at 12.6-51.1 months
Experimental: Three hundred twenty four (324) BPH patients were given an intraprostatic injection of either (a) NX-1207 (2.5 mg) in phosphate buffered saline pH 7.2 (“PBS”) (n=189) or (b) PBS alone (n=135), under double-blind conditions by a urologist in an office setting under ultrasound guidance. These patients were followed for 12.6-51.1 months after treatment and their progress was monitored by urological investigations. Prior to their treatment each patient's sexual function was assessed by history and each patient completed a Sexual Function Questionnaire (“SFQ”) which scored from 0 to 12 points the degree to which the patient considered they had any problems with 1. lack of sex drive, 2. ability to get and keep an erection, and 3. problems with ejaculation; (Problem Assessment Scale of the Brief Male Sexual Function Inventory). A higher score indicates improvement with a better sexual functional self-assessment and less of a sexual problem; a lower score indicates worsening with more of a sexual problem. Many approved BPH medications and treatments are associated with lower scores. Eighty nine (89) BPH patients in this group had baseline pre-treatment SFQ scores<=3 points indicating significant sexual problems. The SFQ was subsequently re-administered 12.6-51.1 months post-treatment. […]

prostate gland = conditions: human, in vivo; cited from earlier work
patients with BPH = experiment: Example 1: Sexual Function Questionnaire (SFQ), treatment naïve BPH patients, one intraprostatic injection, 12 months follow-up; type: in vivo, human; conditions: at 12 months
Experimental: Three hundred and seventy (370) patients with BPH and with no prior history of any conventional approved medical or surgical treatment (“treatment naïve”) for BPH were given an intraprostatic injection of either (a) NX-1207 (2.5 mg) in phosphate buffered saline pH 7.2 (“PBS”) (n=213) or (b) PBS alone (n=157), under double-blind conditions by a urologist in an office setting under ultrasound guidance. These patients were followed for 12 months after treatment and their progress was monitored by urological investigations. Prior to their treatment each patient's sexual function was assessed by history and each patient completed a Sexual Function Questionnaire (“SFQ”) which scored from 0 to 12 points the degree to which the patient considered they had any problems with 1. lack of sex drive, 2. ability to get and keep an erection, and 3. problems with ejaculation, (Problem Assessment Scale of the Brief Male Sexual Function Inventory). A higher score indicates improvement with a better sexual functional self-assessment and less of a sexual problem; a lower score indicates worsening with more of a sexual problem. Many approved BPH medications and treatments are associated with lower scores. The SFQ was subsequently re-administered 12 months post-treatment. The difference from baseline score in the SFQ was compared in NX-1207 patients vs results in patients who received PBS alone.

CC[C@H](C)[C@H](N)C(=O)N[C@@H](CC(=O)O)C(=O)N[C@@H](CCC(N)=O)C(=O)N[C@@H](CCC(N)=O)C(=O)N[C@H](C(=O)N[C@@H](CC(C)C)C(=O)N[C@@H](CO)C(=O)N[C@@H](CCCNC(=N)N)C(=O)N[C@H](C(=O)N[C@@H](CCCCN)C(=O)N[C@@H](CC(C)C)C(=O)N[C@@H](CCC(=O)O)C(=O)N[C@H](C(=O)N[C@@H](CCCCN)C(=O)N[C@@H](CCCNC(=N)N)C(=O)N[C@@H](CS)C(=O)N[C@@H](CC(C)C)C(=O)O)[C@@H](C)CC)[C@@H](C)CC)C(C)C [SEQ ID NO: 66, IDQQVLSRIKLEIKRCL] (H-IDQQVLSRIKLEIKRCL-OH)
sexual adverse events attributable to NX-1207 (BPH patients [1]): no significant incidence of sexual adverse events
sexual adverse events attributable to NX-1207 (BPH patients [2]): no incidence of significant sexual adverse events
sexual adverse events attributable to NX-1207 (BPH patients [3]): no significant incidence of sexual adverse events
sexual adverse events attributable to NX-1207 [4]: no significant incidence of sexual adverse events
sexual adverse events attributable to NX-1207 (BPH patients [5]): no significant incidence of sexual adverse events
sexual adverse events attributable to NX-1207 (BPH patients [6]): no significant incidence of sexual adverse events
safety profile (prostate gland): excellent safety profile
sexual adverse events attributable to NX-1207 (patients with BPH): no significant incidence of sexual adverse events
